In patent publication US20120135866A1, “INCREASING PLANT VIGOR” (DOW AGROSCIENCES LLC, priority 2007, published 2012):
“Also recorded” adds a separate entry of the source.

What was measured:
Assay type in all cases: in vivo
[1] = test system: cotton aphid (CA) Aphis gossypii; assay: Test 1: cotton aphid counts on plants grown from soaked seeds
Description: (§1) Seeds were soaked beginning on T=0 days in solutions of either
(§2) Compound A, imidacloprid, or plain water containing 0.125% (v:v) Tween 20 (check treatment). Compounds were formulated as technical material in water containing 0.125% Tween 20. […] Solution concentrations were 50, 5, 0.5, 0.05 and 0.005 ppm. No evaporation was possible and a significant excess of solution was present to ensure abundant availability of either Compound A or imidacloprid from each solution. On average 20 ml of solution was used to soak groups of seed needed for the seed soaking phase of this test. Seeds were removed from these solutions on T=2 days and planted. Seeds exposed to each unique treatment were germinated as a groups in dedicated shallow plastic cups filled with white sand and containing plain water. Planting of these seeds occurred on T=2 days and the seeds were grown in these shallow cups until T=10 days. Initially 70 ml of water was added to each shallow cup at planting and additional water was added to the cups as needed to keep the sand moist. On T=10 days germinating seedlings were transplanted from the shallow germination cups to individual containers (plastic cups−6 reps per treatment) filled with white sand. Thirty ml of water was used to water the plants following transplanting. After the initial treatment water was added to cups as needed to maintain moisture for plant development. On T=14 days each plant was infested with cotton aphid (CA) Aphis gossypii by transferring a small piece of infested foliage to each test plant. The number of aphids transferred to each plant was uniform based on visual estimation. Plants were rated on T=17 days and T=18 days by counting the number of CA and taking the weight of the each plant. The plant part weighed was the aerial portion of the plant cut off at the surface of the sand. Data were analyzed using analysis of variance with an LSD means separation test (Minitab).
Raw data were not homogeneous and so replicate aphid counts were transformed using a square root count+0.5 transformation.

[2] = test system: plant grown from soaked seeds; assay: Test 1: plant weight (aerial portion) after seed soak
Description: as §1, §2
Treatment number 4 experienced some negative effects associated with excess watering during the phase when these plants were being germinated. […] Only four replicate plants were able to be planted to individual growing cups. […] Prior to conducting an analysis of individual treatment effects (factorial analysis of variance, LSD means separation test P=0.05, Minitab) on weight Treatment 4 (Compound A 0.05 ppm) was removed from the analysis because it was judged to be an outlier based on poor growth as described above. The paired imidacloprid rate (0.05 ppm, No. 9) was also removed to keep the data balanced.

[3] = test system: Corn (Zea mays 'M2T783') seeds; assay: Test 2: fresh plant weight of corn after seed soak
Description: Technical samples of Compound A and imidacloprid were dissolved in water containing 0.125% Tween 20 (V:V). […] The treatment concentrations for Compound A and imidacloprid were 50, 12.5, 3.125, 0.78 and 0.19 ppm. Solutions were prepared in excess and 40 ml was added to 50 ml centrifuge tubes. Corn (Zea mays ‘M2T783’) seeds were inspected for uniform size and undamaged condition and were placed into each centrifuge tube containing specific compound by rate solutions. A treatment of only 0.125% aqueous Tween 20 was used to soak corn seeds and served as the untreated check. Tubes containing seeds and compound solutions were held at room temperature and after […] the seeds were removed from each solution, rinsed and planted into sand in 7.5 cm^2 pots. Tissue paper was placed into the bottom of each pot to keep sand from leaching from the pot. A total of 8 reps of each compound by rate combination were planted for both corn. Eight replicate pots of compound by rate combination were arranged in a completely randomized design on greenhouse carts. This arrangement of treated seeds in pots was placed into the greenhouse and watered over the top as needed. Each cart was equipped with a plastic rack that served to raise the pots up off the cart surface and away from any standing water. The carts were placed in the center of the greenhouse and were rotated 180 degrees daily. After 13 days the carts were moved to the laboratory and the plants were cut off at the soil surface and weighed. Fresh plant weight data were analyzed for homogeneity of variance using Levene's test and further evaluated using one way analysis of variance of individual treatment combinations (compound by rate) and pooled by compound across rates. Means were separated using Tukey's mean separation test with a family-wise error rate of 0.05. All analyses were conducted using Minitab
Corn data were homogeneous based on Levene's test for homgeneity of variance (p=0.116 and p=0.69 respectively). AOV of corn data did indicate a difference (F=3.22, P=0.045, df=2) for pooled compound effects but not for individual treatment effects.

In the case of `CS(=O)(=NC#N)C(Cl)c1ccc(C(F)(F)F)nc1` (stereo not shown) [Compound A], the “Effect on number of aphids vs check” value ([1]; Test 1, seed soak, compound main effect) is reported as “significantly more aphids in the check treatment; also recorded: reduced the number of aphids on plants”, the “Aphids (#/plant) Rep 1” value ([1]; seed soak 0.005 ppm) is reported as 72 #/plant and the “Aphids (#/plant) Rep 2” value ([1]; seed soak 0.005 ppm) is reported as 110 #/plant. The “Aphids (#/plant) Rep 3” value ([1]; seed soak 0.005 ppm) was 35 #/plant, the “Aphids (#/plant) Rep 4” value ([1]; seed soak 0.005 ppm) was 70 #/plant and the “Aphids (#/plant) Rep 5” value ([1]; seed soak 0.005 ppm) was 55 #/plant. For the same molecule, the “Aphids (#/plant) Rep 6” value ([1]; seed soak 0.005 ppm) was 15 #/plant, the “Aphids (#/plant) Rep 1” value ([1]; seed soak 0.05 ppm) was 70 #/plant and the “Aphids (#/plant) Rep 2” value ([1]; seed soak 0.05 ppm) was 80 #/plant. The “Aphids (#/plant) Rep 3” value ([1]; seed soak 0.05 ppm) was 60 #/plant, the “Aphids (#/plant) Rep 4” value ([1]; seed soak 0.05 ppm) was 35 #/plant and the “Aphids (#/plant) Rep 1” value ([1]; seed soak 0.5 ppm) was 55 #/plant. For the same molecule, the “Aphids (#/plant) Rep 2” value ([1]; seed soak 0.5 ppm) was 75 #/plant, the “Aphids (#/plant) Rep 3” value ([1]; seed soak 0.5 ppm) was 65 #/plant and the “Aphids (#/plant) Rep 4” value ([1]; seed soak 0.5 ppm) was 40 #/plant. For the same molecule, the “Aphids (#/plant) Rep 5” value ([1]; seed soak 0.5 ppm) was 45 #/plant, the “Aphids (#/plant) Rep 6” value ([1]; seed soak 0.5 ppm) was 30 #/plant and the “Aphids (#/plant) Rep 1” value ([1]; seed soak 5 ppm) was 23 #/plant. The “Aphids (#/plant) Rep 2” value ([1]; seed soak 5 ppm) was 25 #/plant, the “Aphids (#/plant) Rep 3” value ([1]; seed soak 5 ppm) was 33 #/plant and the “Aphids (#/plant) Rep 4” value ([1]; seed soak 5 ppm) was 65 #/plant. For the same molecule, the “Aphids (#/plant) Rep 5” value ([1]; seed soak 5 ppm) was 25 #/plant, the “Aphids (#/plant) Rep 6” value ([1]; seed soak 5 ppm) was 32 #/plant and the “Aphids (#/plant) Rep 1” value ([1]; seed soak 50 ppm) was 4 #/plant. For the same molecule, the “Aphids (#/plant) Rep 2” value ([1]; seed soak 50 ppm) was 2 #/plant, the “Aphids (#/plant) Rep 3” value ([1]; seed soak 50 ppm) was 2 #/plant and the “Aphids (#/plant) Rep 4” value ([1]; seed soak 50 ppm) was 12 #/plant. The “Aphids (#/plant) Rep 5” value ([1]; seed soak 50 ppm) was 18 #/plant, the “Aphids (#/plant) Rep 6” value ([1]; seed soak 50 ppm) was 2 #/plant and the “Effect on plant weight vs check” value ([2]; Test 1, seed soak) was “significant increase in plant weight”. For the same molecule, the “Plant Weight (g) Rep 1” value ([2]; seed soak 0.005 ppm) was 2.36 g, the “Plant Weight (g) Rep 2” value ([2]; seed soak 0.005 ppm) was 1.76 g and the “Plant Weight (g) Rep 3” value ([2]; seed soak 0.005 ppm) was 2.09 g. For the same molecule, the “Plant Weight (g) Rep 4” value ([2]; seed soak 0.005 ppm) was 2.22 g, the “Plant Weight (g) Rep 5” value ([2]; seed soak 0.005 ppm) was 1.92 g and the “Plant Weight (g) Rep 6” value ([2]; seed soak 0.005 ppm) was 1.93 g. For the same molecule, the “Plant Weight (g) Rep 1” value ([2]; seed soak 0.05 ppm) was 0.73 g, the “Plant Weight (g) Rep 2” value ([2]; seed soak 0.05 ppm) was 1.35 g and the “Plant Weight (g) Rep 3” value ([2]; seed soak 0.05 ppm) was 1.2 g. For the same molecule, the “Plant Weight (g) Rep 4” value ([2]; seed soak 0.05 ppm) was 1.1 g, the “Plant Weight (g) Rep 1” value ([2]; seed soak 0.5 ppm) was 1.84 g and the “Plant Weight (g) Rep 2” value ([2]; seed soak 0.5 ppm) was 1.88 g. The “Plant Weight (g) Rep 3” value ([2]; seed soak 0.5 ppm) was 2.04 g, the “Plant Weight (g) Rep 4” value ([2]; seed soak 0.5 ppm) was 2.13 g and the “Plant Weight (g) Rep 5” value ([2]; seed soak 0.5 ppm) was 1.96 g. The “Plant Weight (g) Rep 6” value ([2]; seed soak 0.5 ppm) was 1.8 g, the “Plant Weight (g) Rep 1” value ([2]; seed soak 5 ppm) was 2.23 g and the “Plant Weight (g) Rep 2” value ([2]; seed soak 5 ppm) was 2.1 g. The “Plant Weight (g) Rep 3” value ([2]; seed soak 5 ppm) was 1.79 g, the “Plant Weight (g) Rep 4” value ([2]; seed soak 5 ppm) was 2.53 g and the “Plant Weight (g) Rep 5” value ([2]; seed soak 5 ppm) was 1.87 g. For the same molecule, the “Plant Weight (g) Rep 6” value ([2]; seed soak 5 ppm) was 1.9 g, the “Plant Weight (g) Rep 1” value ([2]; seed soak 50 ppm) was 2.29 g and the “Plant Weight (g) Rep 2” value ([2]; seed soak 50 ppm) was 2.22 g. For the same molecule, the “Plant Weight (g) Rep 3” value ([2]; seed soak 50 ppm) was 2.12 g, the “Plant Weight (g) Rep 4” value ([2]; seed soak 50 ppm) was 1.87 g and the “Plant Weight (g) Rep 5” value ([2]; seed soak 50 ppm) was 1.87 g. For the same molecule, the “Plant Weight (g) Rep 6” value ([2]; seed soak 50 ppm) was 2.14 g, the “Plant Weight % increase” value ([3]; corn seedling weight vs untreated Tween 20 water check, pooled across rates) was 38.9% and the “Plant Weight (g) Mean” value ([3]; corn, seed soak, pooled across rates 50-0.19 ppm, fresh weight after 13 days) was 3.162 g. For the same molecule, the “Tukey's pair-wise comparison of corn plant weight with untreated Tween 20 water check” value ([3]; pooled compound effects, family-wise error rate 0.05) was “significantly different; also recorded: significantly increased plant weight”.
